Results: ChEMBL document CHEMBL5385906, “Discovery of a Potent, Selective, and Orally Bioavailable Tool Compound for Probing the Role of Lysophosphatidic Acid Type 2 Receptor Antagonists in Fibrotic Disorders” (J Med Chem, 2023)

Key:
[1] = biological target: T1, Lysophosphatidic acid receptor 2 (Mus musculus, UniProt Q9JL06); assay: Antagonist activity at mouse LPA2 receptor expressed in HeLa cells assessed as inhibition of LPA-induced calcium mobilization pretreated for 15 mins followed by LPA stimulation by FLIPR analysis; type: functional, cell-based
[2] = Efflux ratio of apparent permeability across apical to basolateral to basolateral to apical side in human Caco-2 cells at 10 uM measured after 60 mins by LC-MS/MS analysis
[3] = Protein binding in human plasma assessed as fraction unbound at 0.5 uM measured after 5 hrs by LC-MS/MS analysis
[4] = Protein binding in mouse plasma assessed as fraction unbound at 0.5 uM measured after 5 hrs by LC-MS/MS analysis
[5] = Protein binding in mouse lungs assessed as fraction unbound at 5 uM measured after 5 hrs by LC-MS/MS analysis
[6] = Clearance in C57BL/6J mouse at 1.4 mg/kg, iv by UPLC-MS/MS analysis; details: in vivo
[7] = Apparent permeability across apical to basolateral side in human Caco-2 cells at 10 uM measured after 60 mins by LC-MS/MS analysis
[8] = Apparent permeability across basolateral to apical side in human Caco-2 cells at 10 uM measured after 60 mins by LC-MS/MS analysis
[9] = biological target: Lysophosphatidic acid receptor 2 (Homo sapiens, UniProt Q9HBW0)
Description: Antagonist activity at human LPA2 receptor expressed in CHO cells assessed as inhibition of LPA-induced calcium mobilization pretreated for 15 mins followed by LPA stimulation by FLIPR analysis

[10] = biological target: Lysophosphatidic acid receptor 1 (Homo sapiens, UniProt Q92633)
Description: Antagonist activity at human LPA1 receptor expressed in CHO cells assessed as inhibition of LPA-induced calcium mobilization pretreated for 15 mins followed by LPA stimulation by FLIPR analysis

[11] = biological target: T2, Lysophosphatidic acid receptor 3 (Homo sapiens, UniProt Q9UBY5)
T2 sequence (Q9UBY5 whole entry): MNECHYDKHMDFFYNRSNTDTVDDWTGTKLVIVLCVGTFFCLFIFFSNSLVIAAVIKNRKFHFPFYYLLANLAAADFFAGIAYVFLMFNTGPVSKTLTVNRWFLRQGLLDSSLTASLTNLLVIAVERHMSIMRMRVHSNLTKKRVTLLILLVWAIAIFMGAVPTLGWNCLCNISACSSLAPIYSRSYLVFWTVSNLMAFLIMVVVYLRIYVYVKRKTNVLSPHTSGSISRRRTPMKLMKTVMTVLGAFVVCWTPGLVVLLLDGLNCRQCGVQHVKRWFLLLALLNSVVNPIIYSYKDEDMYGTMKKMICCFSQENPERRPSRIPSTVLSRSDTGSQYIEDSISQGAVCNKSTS
Description: Antagonist activity at human LPA3 receptor expressed in HeLa cells assessed as inhibition of LPA-induced calcium mobilization pretreated for 15 mins followed by LPA stimulation by FLIPR analysis

[12] = biological target: Lysophosphatidic acid receptor 4 (Homo sapiens, UniProt Q99677)
in vivo [13] = details: C57BL/6J, mouse, po, 24.3 mg/kg
Description: Half life in C57BL/6J mouse at 24.3 mg/kg, po and 1.4 mg/kg, iv by UPLC-MS/MS analysis

in vivo [14] = details: C57BL/6J, mouse, po, 24.3 mg/kg; remark: listed apart in the source
Description: Oral absorption in C57BL/6J mouse at 24.3 mg/kg by UPLC-MS/MS analysis

in vivo [15] = details: C57BL/6J, mouse, po, 24.3 mg/kg; remark: listed apart in the source
Description: Oral bioavailability in C57BL/6J mouse at 24.3 mg/kg by UPLC-MS/MS analysis

in vivo [16] = details: C57BL/6J, mouse, plasma, po, 24.3 mg/kg
Description: Total Cmax in C57BL/6J mouse plasma at 24.3 mg/kg, po and 1.4 mg/kg, iv by UPLC-MS/MS analysis

in vivo [17] = details: C57BL/6J, mouse, plasma, po, 24.3 mg/kg; remark: listed apart in the source
Description: Total AUClast in C57BL/6J mouse plasma at 24.3 mg/kg, po and 1.4 mg/kg, iv by UPLC-MS/MS analysis

in vivo [18] = details: C57BL/6J, mouse, lungs, po, 24.3 mg/kg
Description: Total Cmax in C57BL/6J mouse lungs at 24.3 mg/kg, po and 1.4 mg/kg, iv by UPLC-MS/MS analysis

in vivo [19] = details: C57BL/6J, mouse, lungs, po, 24.3 mg/kg; remark: listed apart in the source
Description: Total AUClast in C57BL/6J mouse lungs at 24.3 mg/kg, po and 1.4 mg/kg, iv by UPLC-MS/MS analysis

in vivo [20] = details: C57BL/6J, mouse, lung and plasma, po, 24.3 mg/kg
Description: Ratio of total AUC in lung to plasma in C57BL/6J mouse at 24.3 mg/kg, po and 1.4 mg/kg, iv by UPLC-MS/MS analysis

in vitro [21] = details: human, liver microsomes, CLH
Description: Intrinsic clearance in human liver microsomes at 0.5 uM in presence of NADPH regenerating system measured for 45 mins per mg protein by LC-MS/MS analysis

in vitro [22] = details: C57BL/6J, mouse, liver microsomes
Description: Intrinsic clearance in C57BL/6J mouse liver microsomes at 0.5 uM in presence of NADPH regenerating system measured for 45 mins per mg protein by LC-MS/MS analysis

in vivo [23] = details: C57BL/6J, mouse, po, 26.5 mg/kg
Description: Half life in C57BL/6J mouse at 26.5 mg/kg, po and 2 mg/kg, iv by LC-MS/MS analysis

in vivo [24] = details: C57BL/6J, mouse, po, 26.5 mg/kg; remark: listed apart in the source
Description: Oral absorption in C57BL/6J mouse at 26.5 mg/kg by LC-MS/MS analysis

in vivo [25] = details: C57BL/6J, mouse, po, 26.5 mg/kg; remark: listed apart in the source
Description: Oral bioavailability in C57BL/6J mouse at 26.5 mg/kg by LC-MS/MS analysis

in vivo [26] = details: C57BL/6J, mouse, plasma, po, 26.5 mg/kg
Description: Total Cmax in C57BL/6J mouse plasma at 26.5 mg/kg, po and 2 mg/kg, iv by LC-MS/MS analysis

in vivo [27] = details: C57BL/6J, mouse, plasma, po, 26.5 mg/kg; remark: listed apart in the source
Description: Total AUC last in C57BL/6J mouse plasma at 26.5 mg/kg, po and 2 mg/kg, iv by LC-MS/MS analysis

in vivo [28] = details: C57BL/6J, mouse, lung, po, 26.5 mg/kg
Description: Total Cmax in C57BL/6J mouse lungs at 26.5 mg/kg, po and 2 mg/kg, iv by LC-MS/MS analysis

in vivo [29] = details: C57BL/6J, mouse, lung, po, 26.5 mg/kg; remark: listed apart in the source
Description: Total AUC last in C57BL/6J mouse lungs at 26.5 mg/kg, po and 2 mg/kg, iv by LC-MS/MS analysis

in vivo [30] = details: C57BL/6J, mouse, po, 24.8 mg/kg
Description: Half life in C57BL/6J mouse at 24.8 mg/kg, po and 1.8 mg/kg, iv by LC-MS/MS analysis

in vivo [31] = details: C57BL/6J, mouse, po, 24.8 mg/kg; remark: listed apart in the source
Description: Oral absorption in C57BL/6J mouse at 24.8 mg/kg by LC-MS/MS analysis

in vivo [32] = details: C57BL/6J, mouse, po, 24.8 mg/kg; remark: listed apart in the source
Description: Oral availability in C57BL/6J mouse at 24.8 mg/kg by LC-MS/MS analysis

in vivo [33] = details: C57BL/6J, mouse, po, 24.8 mg/kg; remark: listed apart in the source
Description: Total Cmax in C57BL/6J mouse plasma at 24.8 mg/kg, po and 1.8 mg/kg, iv by LC-MS/MS analysis

in vivo [34] = details: C57BL/6J, mouse, po, 24.8 mg/kg; remark: listed apart in the source
Description: Total AUC last in C57BL/6J mouse plasma at 24.8 mg/kg, po and 1.8 mg/kg, iv by LC-MS/MS analysis

in vivo [35] = details: C57BL/6J, mouse, po, 24.8 mg/kg; remark: listed apart in the source
Description: Total Cmax in C57BL/6J mouse lungs at 24.8 mg/kg, po and 1.8 mg/kg, iv by LC-MS/MS analysis

in vivo [36] = details: C57BL/6J, mouse, po, 24.8 mg/kg; remark: listed apart in the source
Description: Total AUC last in C57BL/6J mouse lungs at 24.8 mg/kg, po and 1.8 mg/kg, iv by LC-MS/MS analysis

[37] = Half life in C57BL/6J mouse at 5 mg/kg, po or 4 mg/kg, iv by UPLC-MS/MS analysis; details: in vivo
[38] = biological target: T1, Lysophosphatidic acid receptor 2
Description: Antagonist activity at LPA2 receptor expressed in C57BL/6 mouse primary alveolar epithelial cells assessed as inhibition of LPA-induced calcium mobilization pretreated for 15 mins followed by LPA stimulation by FLIPR analysis

[39] = biological target: Lysophosphatidic acid receptor 5 (Homo sapiens, UniProt Q9H1C0)
Description: Antagonist activity at human LPA5 receptor expressed in HeLa cells assessed as inhibition of LPA-induced calcium mobilization pretreated for 15 mins followed by LPA stimulation by FLIPR analysis

in vivo [40] = details: C57BL/6J, mouse, po, 5 mg/kg
Description: Oral bioavailability in C57BL/6J mouse at 5 mg/kg by UPLC-MS/MS analysis

Lysophosphatidic acid receptor 2 (Homo sapiens, UniProt Q9HBW0), sequence (Q9HBW0 whole entry): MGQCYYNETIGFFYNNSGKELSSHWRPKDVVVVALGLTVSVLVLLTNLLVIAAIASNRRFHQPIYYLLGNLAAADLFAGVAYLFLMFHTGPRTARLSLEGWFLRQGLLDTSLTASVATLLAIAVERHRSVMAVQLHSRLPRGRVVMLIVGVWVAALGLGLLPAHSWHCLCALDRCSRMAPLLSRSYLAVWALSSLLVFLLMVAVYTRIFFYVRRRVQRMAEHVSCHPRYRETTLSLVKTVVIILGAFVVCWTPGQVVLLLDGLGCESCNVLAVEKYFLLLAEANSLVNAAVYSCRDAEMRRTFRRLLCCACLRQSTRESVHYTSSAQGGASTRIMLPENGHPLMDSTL
T1 sequence (Q9JL06 whole entry): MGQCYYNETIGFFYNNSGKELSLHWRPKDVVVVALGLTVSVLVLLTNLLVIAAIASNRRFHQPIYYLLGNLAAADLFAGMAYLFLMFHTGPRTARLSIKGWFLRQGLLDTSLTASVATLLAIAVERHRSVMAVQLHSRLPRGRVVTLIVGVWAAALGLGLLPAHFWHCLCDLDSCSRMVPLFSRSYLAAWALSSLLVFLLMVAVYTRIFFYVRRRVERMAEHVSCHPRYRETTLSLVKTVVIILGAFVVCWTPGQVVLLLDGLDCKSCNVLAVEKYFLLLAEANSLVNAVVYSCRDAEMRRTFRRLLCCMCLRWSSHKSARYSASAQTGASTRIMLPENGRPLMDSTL
Lysophosphatidic acid receptor 1, sequence (Q92633 whole entry): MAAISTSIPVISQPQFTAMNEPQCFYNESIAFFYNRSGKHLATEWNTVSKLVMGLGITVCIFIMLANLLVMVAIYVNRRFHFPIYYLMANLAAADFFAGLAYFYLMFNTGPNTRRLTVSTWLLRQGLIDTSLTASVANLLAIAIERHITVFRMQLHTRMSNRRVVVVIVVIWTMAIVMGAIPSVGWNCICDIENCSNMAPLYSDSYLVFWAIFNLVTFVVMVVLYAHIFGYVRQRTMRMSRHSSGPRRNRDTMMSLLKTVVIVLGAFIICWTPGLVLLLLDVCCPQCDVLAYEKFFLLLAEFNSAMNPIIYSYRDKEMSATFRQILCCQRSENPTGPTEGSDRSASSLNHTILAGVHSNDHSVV
Lysophosphatidic acid receptor 4, sequence (Q99677 whole entry): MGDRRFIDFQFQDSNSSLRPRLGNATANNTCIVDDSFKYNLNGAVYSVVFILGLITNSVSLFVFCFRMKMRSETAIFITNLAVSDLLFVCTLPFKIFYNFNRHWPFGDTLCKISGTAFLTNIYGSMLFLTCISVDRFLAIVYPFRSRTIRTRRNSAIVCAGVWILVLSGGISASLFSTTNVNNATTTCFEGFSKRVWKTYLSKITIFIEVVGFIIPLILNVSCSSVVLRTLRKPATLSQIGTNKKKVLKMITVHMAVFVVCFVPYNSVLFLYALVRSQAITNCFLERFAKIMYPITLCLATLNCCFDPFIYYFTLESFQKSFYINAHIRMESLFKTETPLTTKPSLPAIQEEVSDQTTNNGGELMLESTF
Lysophosphatidic acid receptor 5, sequence (Q9H1C0 whole entry): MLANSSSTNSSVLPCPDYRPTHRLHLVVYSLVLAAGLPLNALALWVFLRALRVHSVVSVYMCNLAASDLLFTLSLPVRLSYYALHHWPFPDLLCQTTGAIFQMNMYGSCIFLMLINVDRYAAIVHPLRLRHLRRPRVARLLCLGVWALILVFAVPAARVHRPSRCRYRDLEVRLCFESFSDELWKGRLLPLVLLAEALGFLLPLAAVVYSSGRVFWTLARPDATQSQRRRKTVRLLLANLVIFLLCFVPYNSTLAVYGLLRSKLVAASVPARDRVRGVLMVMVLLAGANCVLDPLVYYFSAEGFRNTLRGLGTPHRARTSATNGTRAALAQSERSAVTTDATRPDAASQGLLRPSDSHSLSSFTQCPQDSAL

| efflux ratio at 1 h, 10 µM [2] | fraction unbound at 5 h, 0.5 µM [3] | fraction unbound at 5 h, 0.5 µM [4] | fraction unbound at 5 h, 5 µM [5] | Papp A→B at 1 h, 10 µM [7] [×10⁻⁶ cm/s] | Papp B→A at 1 h, 10 µM [8] [×10⁻⁶ cm/s] | IC50 [9] [nM] | IC50 [10] [nM] | IC50 [11] [nM] | IC50 [12] [nM] | microsomal CLint at 0.75 h, 0.5 µM (in vitro [21]) [µL/min/mg] | microsomal CLint at 0.75 h, 0.5 µM (in vitro [22]) [µL/min/mg] | IC50 ([1]; read-out: pIC50 (converted)) [nM] | SMILES | other results |
| --- | --- | --- | --- | --- | --- | --- | --- | --- | --- | --- | --- | --- | --- | --- |
| 1.7 | < 0.01 | 0.0023 | 0.0385 | 8.12 | 13.5 | 479 | > 50100 | > 50100 | 24000 | 80 | 156 |  | COC(=O)Nc1nc(C)c(S(=O)(=O)N2CCN(C[C@H](C)Nc3ncnc4c(C)csc34)CC2)s1 | IC50 ([1]; read-out: IC50): 7080 nM; clearance [6]: 0.82 mL/min/kg; half-life (in vivo [13]): 2.17 h; Fa (in vivo [14]): 91%; bioavailability (in vivo [15]): 85%; Cmax (in vivo [16]): 91300 ng/mL; AUC(0-t) (in vivo [17]): 435 µg·h/mL; Cmax (in vivo [18]): 25300 ng/mL; AUC(0-t) (in vivo [19]): 119 µg·h/mL; Kp (in vivo [20]): 0.27 |
| 5.7 | < 0.01 | 0.0011 | 0.0175 |  |  | 2.45 | > 50100 |  |  | 34 | 49 | 4.17 | COC(=O)Nc1nc(C)c(S(=O)(=O)N2CCN(C[C@H](C)Nc3ncnc4c(-c5ccc(C)nc5)cccc34)CC2)s1 | half-life (in vivo [23]): 1.67 h; Fa (in vivo [24]): 97%; bioavailability (in vivo [25]): 87%; Cmax (in vivo [26]): 71500 ng/mL; AUC(0-t) (in vivo [27]): 280 µg·h/mL; Cmax (in vivo [28]): 15400 ng/mL; AUC(0-t) (in vivo [29]): 50.5 µg·h/mL |
| 2.9 | < 0.01 | 0.0015 | 0.0122 | 2.23 | 6.41 | 0.347 | > 50100 |  |  | 52 | 125 | 2.04 | COC(=O)Nc1nc(C)c(S(=O)(=O)N2CCN(C[C@H](C)Nc3ncnc4c(-c5cn(C)nc5C(F)(F)F)cccc34)CC2)s1 | half-life (in vivo [30]): 1.69 h; Fa (in vivo [31]): 100%; bioavailability (in vivo [32]): 89%; Cmax (in vivo [33]): 70100 ng/mL; AUC(0-t) (in vivo [34]): 418 µg·h/mL; Cmax (in vivo [35]): 19000 ng/mL; AUC(0-t) (in vivo [36]): 78 µg·h/mL |
| 1 | 0.004 | 0.0065 | 0.001 | 0.89 | 0.91 | 676 | 9770 | 38900 | 6310 | 758 | > 759 | 295 | Cc1csc2c(N[C@@H](C)CN3CCN(S(=O)(=O)c4ccc(Cl)c(Cl)c4)CC3)ncnc12 | half-life [37]: 1 h; IC50 [38]: 324 nM; IC50 [39]: > 50100 nM; bioavailability (in vivo [40]): 0.23% |
